Like-named read-outs stand apart in the source and are kept apart here.
Key:
IRAK4 = target: T1, IRAK4 (Homo sapiens, UniProt Q9NWZ3); assay: RBC HotSpot Kinase Assay, IRAK4; format: biochemical; design: purchased Reaction Biology (RBC HotSpot Kinase Assay)
T1 sequence (Q9NWZ3 1-460): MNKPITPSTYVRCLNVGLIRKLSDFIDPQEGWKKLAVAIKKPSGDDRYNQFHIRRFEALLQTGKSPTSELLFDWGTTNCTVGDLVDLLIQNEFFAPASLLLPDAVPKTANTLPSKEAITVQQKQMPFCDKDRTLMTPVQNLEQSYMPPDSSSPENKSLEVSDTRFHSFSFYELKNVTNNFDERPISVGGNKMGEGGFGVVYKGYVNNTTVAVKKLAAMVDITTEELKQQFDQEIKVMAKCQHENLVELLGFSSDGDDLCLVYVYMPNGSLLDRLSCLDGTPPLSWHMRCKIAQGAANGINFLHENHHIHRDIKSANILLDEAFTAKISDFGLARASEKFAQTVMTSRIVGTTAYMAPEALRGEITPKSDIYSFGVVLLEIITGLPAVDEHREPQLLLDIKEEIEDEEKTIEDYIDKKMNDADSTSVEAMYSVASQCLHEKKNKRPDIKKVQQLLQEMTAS
Outline: (§1)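 Radiometric filter-binding (HotSpot) activity assay on isolated recombinant kinase, possibly truncated or catalytic domain only, in 20 mM Hepes pH 7.5, 10 mM MgCl2, 1 mM EGTA, 2 mM DTT, 1% DMSO. Compound preincubated 20 min with kinase and substrate, then ^33P-ATP added. Reaction 2 h at room temperature, read by P81 filter binding.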

MOLM14 F691L cells = assay: MOLM14 F691L cell viability assay (Cell Titer Glo); format: cell-based
Description: (§2) Both cell lines have activated FLT3 receptors, each of which carry additional resistance mutations in the kinase domain (D835Y and F691L, respectively).
(§3) MOLM14 D835Y and MOLM14 F691L cells were grown in RPMI-1640 media supplemented with 20% fetal bovine serum (FBS). For viability/cytotoxicity assessments, cells were seeded into 1536-well white polystyrene tissue culture-treated Greiner plates using a Multidrop Combi dispenser (ThermoFisher), in final volume 5 μL of growth media per well, at a density of 1000 cells per well. After cell addition, 23 nL of test compound were transferred into individual wells (22 doses tested for each test compound, with a 1:2 dilution series starting at 10 μM) via a 1536 pin-tool. Bortezomib (final concentration 2.3 μM) was used as a positive control for cell cytotoxicity. Plates were incubated for 48 hours at standard incubator conditions covered by a stainless steel gasketed lid to prevent evaporation. 48 hours post compound addition, 3 μL of Cell Titer Glo (Promega) were added to each well and plates were incubated at room temperature for 15 minutes with the stainless-steel lid in place. Luminescence readings were taken using a Viewlux imager (PerkinElmer) with a 2 second exposure time per plate.

IRAK1 = target: T2, IRAK1 (Homo sapiens, UniProt P51617); assay: RBC HotSpot Kinase Assay, IRAK1; format: biochemical
T2 construct: purchased Reaction Biology (RBC HotSpot Kinase Assay)
Outline: as §1

FLT3 = target: T3, FLT3 (Homo sapiens, UniProt P36888); assay: RBC HotSpot Kinase Assay, FLT3; format: biochemical
T3 construct: purchased Reaction Biology (RBC HotSpot Kinase Assay)
T3 sequence (P36888 564-958 limits assumed): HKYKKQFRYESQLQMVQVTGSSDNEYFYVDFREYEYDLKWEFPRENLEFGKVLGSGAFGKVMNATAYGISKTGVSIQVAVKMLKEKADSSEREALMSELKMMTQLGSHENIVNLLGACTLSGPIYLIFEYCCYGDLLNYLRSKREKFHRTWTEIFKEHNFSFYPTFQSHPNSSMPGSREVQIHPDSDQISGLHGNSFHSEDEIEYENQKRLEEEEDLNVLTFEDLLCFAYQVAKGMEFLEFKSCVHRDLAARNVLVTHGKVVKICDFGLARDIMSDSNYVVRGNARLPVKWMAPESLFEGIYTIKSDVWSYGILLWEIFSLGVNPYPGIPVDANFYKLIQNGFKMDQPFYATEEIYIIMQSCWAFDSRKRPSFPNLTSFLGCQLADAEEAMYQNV
Outline: as §1

MOLM14 D835Y cells = assay: MOLM14 D835Y cell viability assay (Cell Titer Glo); format: cell-based
Description: as §2, §3

THP-1-Blue NF-κB cells = assay: NF-kB SEAP reporter assay in THP-1-Blue NF-κB cells; format: cell-based; conditions: 24 hours
Description: THP-1-Blue NF-κB cells (InvivoGen) carrying a stable integrated NF-κB-inducible secreted embryonic alkaline phosphatase (SEAP) reporter construct were plated at a concentration of 1×10^5 cells per well. The cells were stimulated with Pam3CSK4 (1 ng/mL) or hIL1B (1 ng/mL). After 10-20 minutes, the cells were then treated with vehicle (DMSO) or serial dilutions of the test compounds (10 doses tested for each test compound, with a 1:10 dilution series starting at 1 μM or 3 μM) with a final volume of 200 μL for 24 hours at 37° C. After 24 hours, the cells were centrifuged and 20 μL supernatant was incubated with 180 μL QUANTI-Blue reagent at 37° C. for 30-60 minutes. The levels of NF-κB-induced gene expression were measured in a microplate reader at 620 nm.

[1] = stimulated with Pam3CSK4 (1 ng/mL), read-out: NF-κB Pam3SCK4 IC50
[2] = stimulated with hIL1B (1 ng/mL), read-out: NF-κB IL1B IC50

T2 sequence (P51617 whole entry): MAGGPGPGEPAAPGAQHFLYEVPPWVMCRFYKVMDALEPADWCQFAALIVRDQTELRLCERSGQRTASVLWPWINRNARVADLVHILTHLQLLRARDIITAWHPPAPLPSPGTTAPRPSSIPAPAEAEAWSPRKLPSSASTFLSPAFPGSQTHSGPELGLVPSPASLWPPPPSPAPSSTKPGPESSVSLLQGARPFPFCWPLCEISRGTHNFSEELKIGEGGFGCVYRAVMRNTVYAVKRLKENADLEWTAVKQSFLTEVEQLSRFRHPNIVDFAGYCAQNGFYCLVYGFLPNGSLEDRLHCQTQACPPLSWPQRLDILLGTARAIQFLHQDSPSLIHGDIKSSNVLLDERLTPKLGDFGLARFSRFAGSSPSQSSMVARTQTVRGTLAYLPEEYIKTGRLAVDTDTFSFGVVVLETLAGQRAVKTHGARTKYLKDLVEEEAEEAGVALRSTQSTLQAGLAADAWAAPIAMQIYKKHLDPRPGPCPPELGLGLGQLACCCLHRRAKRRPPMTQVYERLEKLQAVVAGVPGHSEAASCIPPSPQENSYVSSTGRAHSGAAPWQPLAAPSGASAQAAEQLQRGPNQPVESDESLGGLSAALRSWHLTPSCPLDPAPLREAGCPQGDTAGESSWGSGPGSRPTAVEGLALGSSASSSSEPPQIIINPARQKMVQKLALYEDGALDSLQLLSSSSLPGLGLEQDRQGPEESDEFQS

Question: With `COc1cc2ncc(-c3cccc(N[C@H]4CNCC[C@@H]4F)n3)n2nc1-c1cn[nH]c1` [Compound 120, N-((3S,4S)-4-fluoropiperidin-3-yl)-6-(7-methoxy-6-(1H-pyrazol-4-yl)imidazo[1,2-b]pyridazin-3-yl)pyridin-2-amine] as the compound, how does the IC50 (IRAK4) read?
Answer: < 0.5 nM

Question: And the IC50 (MOLM14 F691L cells; Homo sapiens, MOLM-14, 48 h)?
Answer: 275 nM

Question: And the IC50 (IRAK1)?
Answer: 85 nM

Question: And the IC50 (FLT3)?
Answer: < 0.5 nM

Question: And the IC50 (MOLM14 D835Y cells; Homo sapiens, MOLM-14, 48 h)?
Answer: 20 nM

Question: How did the IC50 (IRAK4) turn out when `COc1cc2ncc(-c3cccc(N[C@H]4CNC[C@@H]4F)n3)n2nc1C(F)F` [Compound 116, 6-(6-(difluoromethyl)-7-methoxyimidazo[1,2-b]pyridazin-3-yl)-N-((3S,4S)-4-fluoropyrrolidin-3-yl)pyridin-2-amine] was run?
Answer: < 0.5 nM

Question: And the IC50 (MOLM14 F691L cells; Homo sapiens, MOLM-14, 48 h)?
Answer: 1090 nM

Question: And the IC50 (IRAK1)?
Answer: 25 nM

Question: And the IC50 (FLT3)?
Answer: < 0.5 nM

Question: And the IC50 (THP-1-Blue NF-κB cells; [1])?
Answer: 20 nM

Question: What about the IC50 (THP-1-Blue NF-κB cells; [2]) of the same compound?
Answer: 46 nM

Question: What about the IC50 (MOLM14 D835Y cells; Homo sapiens, MOLM-14, 48 h) of the same compound?
Answer: 77 nM

Question: For `Cn1cc(-c2ccc3ncc(-c4cccc(N[C@H]5CNC[C@@H]5F)n4)n3n2)cn1` [Compound 1, N-((3S,4S)-4-fluoropyrrolidin-3-yl)-6-(6-(1-methyl-1H-pyrazol-4-yl)imidazo[1,2-b]pyridazin-3-yl)pyridin-2-amine], which IC50 (IRAK4) is on record?
Answer: 13 nM

Question: What about the IC50 (MOLM14 F691L cells; Homo sapiens, MOLM-14, 48 h) of the same compound?
Answer: 1680 nM

Question: What about the IC50 (IRAK1) of the same compound?
Answer: 331 nM

Question: What about the IC50 (FLT3) of the same compound?
Answer: 0.6 nM

Question: And the IC50 (MOLM14 D835Y cells; Homo sapiens, MOLM-14, 48 h)?
Answer: 60 nM

Question: Which results are given for `COc1cc2ncc(-c3cc(F)cc(N[C@H]4CNC[C@@H]4F)n3)n2nc1C1CC1` [Compound 103, 6-(6-cyclopropyl-7-methoxyimidazo[1,2-b]pyridazin-3-yl)-4-fluoro-N-((3S,4S)-4-fluoropyrrolidin-3-yl)pyridin-2-amine]?
Answer: IC50 (IRAK4): 16 nM; IC50 (MOLM14 F691L cells; Homo sapiens, MOLM-14, 48 h): 1450 nM; IC50 (IRAK1): 218 nM; IC50 (FLT3): < 0.5 nM; IC50 (MOLM14 D835Y cells; Homo sapiens, MOLM-14, 48 h): 205 nM

Question: For `COc1cc2ncc(-c3cc(F)cc(N[C@H]4CNCC[C@@H]4F)n3)n2nc1C1CC1` [Compound 105, 6-(6-cyclopropyl-7-methoxyimidazo[1,2-b]pyridazin-3-yl)-4-fluoro-N-((3S,4S)-4-fluoropiperidin-3-yl)pyridin-2-amine], which IC50 (IRAK4) is on record?
Answer: 7 nM

Question: What about the IC50 (MOLM14 F691L cells; Homo sapiens, MOLM-14, 48 h) of the same compound?
Answer: 1220 nM

Question: And the IC50 (IRAK1)?
Answer: 272 nM

Question: What about the IC50 (FLT3) of the same compound?
Answer: < 0.5 nM

Question: What about the IC50 (MOLM14 D835Y cells; Homo sapiens, MOLM-14, 48 h) of the same compound?
Answer: 231 nM

Question: Which results are given for `COc1cc2ncc(-c3cccc(N[C@@H]4CCCNC4)n3)n2nc1C(C)(O)C(F)(F)F` (single isomer, unassigned) [Compound 132]?
Answer: IC50 (IRAK4): 1770 nM; IC50 (MOLM14 F691L cells; 48 hours): 3440 nM; IC50 (IRAK1): > 10000 nM; IC50 (FLT3): 5 nM; IC50 (MOLM14 D835Y cells; 48 hours): 486 nM

Question: What does the source list for `COc1cc2ncc(-c3cccc(N[C@H]4CNC[C@@H]4F)n3)n2nc1-c1cnn(C)c1` [Compound 121, N-((3S,4S)-4-fluoropyrrolidin-3-yl)-6-(7-methoxy-6-(1-methyl-1H-pyrazol-4-yl)imidazo[1,2-b]pyridazin-3-yl)pyridin-2-amine]?
Answer: IC50 (IRAK4): 11 nM; IC50 (MOLM14 F691L cells; Homo sapiens, MOLM-14, 48 h): 1370 nM; IC50 (IRAK1): 778 nM; IC50 (FLT3): 1 nM; IC50 (MOLM14 D835Y cells; Homo sapiens, MOLM-14, 48 h): 97 nM

Question: Which results are given for `COc1cc2ncc(-c3cccc(N[C@H]4CNCC[C@@H]4F)n3)n2nc1C(F)F` [Compound 118, 6-(6-(difluoromethyl)-7-methoxyimidazo[1,2-b]pyridazin-3-yl)-N-((3S,4S)-4-fluoropiperidin-3-yl)pyridin-2-amine]?
Answer: IC50 (IRAK4): 2 nM; IC50 (MOLM14 F691L cells; Homo sapiens, MOLM-14, 48 h): 770 nM; IC50 (IRAK1): 70 nM; IC50 (FLT3): < 0.5 nM; IC50 (THP-1-Blue NF-κB cells; [1]): 76 nM; IC50 (THP-1-Blue NF-κB cells; [2]): 216 nM; IC50 (MOLM14 D835Y cells; Homo sapiens, MOLM-14, 48 h): 61 nM

Question: `COc1cc2ncc(-c3cccc(N[C@H]4CNCC[C@@H]4F)n3)n2nc1C(C)(O)C(F)(F)F` (single isomer, unassigned; fast-eluting) [Compound 134] was tested. Which IC50 (IRAK4) did it give?
Answer: 183 nM

Question: And the IC50 (MOLM14 F691L cells; 48 hours)?
Answer: 1720 nM

Question: And the IC50 (IRAK1)?
Answer: 8640 nM

Question: What about the IC50 (FLT3) of the same compound?
Answer: < 0.5 nM

Question: And the IC50 (MOLM14 D835Y cells; 48 hours)?
Answer: 244 nM

Question: Which results are given for `COc1cc2ncc(-c3cccc(N[C@H]4CNC[C@@H]4F)n3)n2nc1C(C)(O)C(F)(F)F` (single isomer, unassigned; slow-eluting) [Compound 135]?
Answer: IC50 (IRAK4): 169 nM; IC50 (MOLM14 F691L cells; 48 hours): 4330 nM; IC50 (IRAK1): > 10000 nM; IC50 (FLT3): < 0.5 nM; IC50 (MOLM14 D835Y cells; 48 hours): 386 nM

Question: For `COc1cc2ncc(-c3cccc(N[C@H]4CNCC[C@@H]4F)n3)n2nc1C(C)(O)C(F)(F)F` (single isomer, unassigned; slow-eluting) [Compound 136], which IC50 (IRAK4) is on record?
Answer: 10 nM

Question: What about the IC50 (MOLM14 F691L cells; 48 hours) of the same compound?
Answer: 344 nM

Question: And the IC50 (IRAK1)?
Answer: 3140 nM

Question: And the IC50 (FLT3)?
Answer: < 0.5 nM

Question: What about the IC50 (MOLM14 D835Y cells; 48 hours) of the same compound?
Answer: 31 nM

Question: What does the source list for `COc1cc2ncc(-c3cccc(N[C@@H]4CCCNC4)n3)n2nc1C(C)(O)C(F)(F)F` (single isomer, unassigned) [Compound 131]?
Answer: IC50 (IRAK4): 424 nM; IC50 (MOLM14 F691L cells; 48 hours): 545 nM; IC50 (IRAK1): 8200 nM; IC50 (FLT3): < 0.5 nM; IC50 (MOLM14 D835Y cells; 48 hours): 69 nM

Reference: patent US12534469B2 (CHILDREN'S HOSPITAL MEDICAL CENTER, priority 2020, dated 2026)
